Source: patent publication US20050233361A1, “PPARdelta assay” (priority 2004, published 2005)

Experiments:
ANGPTL4 gene expression [1] = experiment: ANGPTL4 gene expression in C2C12 cells by Affymetrix micro-arrays; type: cell-based; conditions: C2C12 mouse muscle cells, 20 hours, vs control = 1.00
Method: Cell culture: C2C12 cells (ATCC: CRL1772)
Cells were cultured in DMEM (5 mM glucose) supplemented with 10% heat-inactivated fetal calf serum (FCS). Complete medium was filtered through 0.2 μm pores before use. Differentiation was performed in 6 well dishes by serum depleting the medium (DMEM High Glucose, 2% FCS) when cells reach confluency. Cell cultures were then incubated for 5 days at 37° C. in a 90%-humidified and 95%-air-5%-CO2 sterile atmosphere to allow differentiation.
PPAR Ligands were dissolved in 100% DMSO and added to medium to adjust 0.1% (v/v) DMSO final concentration and cells were incubated with ligands for 20 hours under normal growth conditions. Three replicates were done for each condition.
RNA extraction procedure has been performed with Qiagen QIAschredder and RNeasy kits.
Approximately 1*106 pelleted cells per sample were resuspended in 350 μl guanidine thiocyanate containing RLT. Samples were loaded on a QIAshredder-column and centrifuged at full speed for 2 minutes to homogenize the lysates. After adding 350 μl ethanol to the flow-through for better binding conditions, samples were applied to RNeasy spin. For the first wash step 350 μl RW1 buffer were pipeted into the column. Then 10 μL DNase solution gently mixed with 70 μl RDD buffer were applied onto the column and incubated for 15 minutes at room temperature to remove genomic DNA. […]

ANGPTL4 gene expression [2] = experiment: ANGPTL4 gene expression in C2C12 cells by qPCR; type: cell-based; conditions: C2C12 mouse muscle cells, S12 reference, vs control = 1
Method: The culturing of the C2C12 mouse muscle cells, RNA extraction, cDNA synthesis and purifications were performed as described in Example 1.
RT-PCR was performed with the Quantitech SYBR Green kit from Qiagen according to the manufacturer's manual. Each component were added to 96 well plate: 25 μl master mix, 0.16 μl of each primer (100 μM stock solution), 22.7 μl H2O and 2 μl cDNA.
The program consists of three different steps: initial denaturation of template and heat-activation of the Taq DNA polymerase (95° C., 15 min), cycling (95° C. denaturation, 60° C. primer-template annealing, 72° C. elongation, fluorescence aquisition), and final melting (melting curve 55 to 95° C., measurements in 0.5° C. steps).
The relative quantification is based on the relative expression of the target gene versus a reference gene. […] The cycle number at which threshold fluorescence is reached, is called ct value. […] The relative ct value of a target gene compared to the ct value of an internal reference in the control or untreated sample is expressed as Δct.control=ctreference of control−cttarget of control and in a treated, unknown sample as Δct.sample=ctreference of sample−cttarget of sample.
As internal reference for quantitative studies the ribosomal protein S12 gene expression was used. […] Setting of fluorescence threshold is determined by the light cycler software. The obtained ct values (duplicates for one sample, two samples per condition) were exported into Microsoft Excel and analyzed as described above.

Compound	ANGPTL4 gene expression fold changes (ANGPTL4 gene expression [1]; 300 μM)	ANGPTL4 gene expression fold changes (ANGPTL4 gene expression [2]; 300 μM)	ANGPTL4 gene expression fold changes (ANGPTL4 gene expression [1]; 500 nM)	ANGPTL4 gene expression fold changes (ANGPTL4 gene expression [2]; 500 nM)
CC(C)(Oc1ccc(C(=O)c2ccc(Cl)cc2)cc1)C(=O)O [A, 2-[4-(4-Chlorobenzoyl)-phenoxy]-2-methylpropanoic acid]	1.99 fold	2.61 fold		
Cc1nc(-c2ccc(C(F)(F)F)cc2)sc1C(Sc1ccc(OCC(=O)O)c2ccccc12)C1CCCC1 (racemic) [C, [rac]-(4-{Cyclopentyl-[4-methyl-2-(4-trifluoromethyl-penyl)-thiazol-5-yl]-methylsulfanyl}-naphtalen-1-yloxy}-acetic]			8.87 fold	10.06 fold
Cc1cc(N(C)Cc2sc(-c3ccc(C(F)(F)F)cc3)nc2C)ccc1OCC(=O)O [D, (2-Methyl-4-{Methyl-[4-methyl-2-(4-trifluoromethyl-phenyl)-thiazol-5-ylmethyl]-amino}-phenoxy)-acetic acid]				13.51 fold
